Reference: patent US20090232912A1, “Method For Preparing Extract For The Prevention and Treatment Of Hyperlipidemia and Obesity From the Extract of Aster Spathulifolius Aerial Part and Composition Containing The Same” (priority 2005, published 2009)
Marks after values point to notes of the source that are not given here.

Tests used:
Format in all cases: in vivo, rat (Sprague-Dawley male)
rats fed high fat diet [1] = assay: Experiment 4: hepatic lipids (TG, TC, FFA); settings: Exp.4 HFD rats; AE-B 125, AE-C 100, AE-1 10, ABP 1.5 mg/kg once a day 6 weeks
Description: (§1) The rats, aged 6 week-old and weighing 170˜180 g Sprague-Dawley male, were purchased from Samtaco (Seoul, Korea). After the animals were given a standard laboratory diet for 1 week, they were divided two groups each group. Rats were fed two diets: the normal diet (ND, n=10) group and high fat diet (HFD, n=50) group. 6 weeks later, HFD group were subdivided five groups. They were administrated with extract of Aster spathulifolius aerial part orally once a day for 6 weeks.
(§2) Hepatic lipid was extracted by the method devised by Folch et al. and its content was measured by the same technique used for the serum analysis. […] There was no significant difference in hepatic free fatty acid (FFA) level.

rats fed high fat diet [2] = assay: Experiment 4: white adipocyte size and adipose tissue weights; settings: Exp.4 HFD rats; after 12 weeks; AE-B 125, AE-C 100, AE-1 10, ABP 1.5 mg/kg once a day 6 weeks
Description: as §1
A is ND Group, B is HFD-C group, C is HFD+AE-B group, D is HFD+AE-C group, E is HFD+AE-1 group and F is HFD+ABP group.
(§3) After 12 weeks, rats were anesthetized with ether and sacrificed after 14 h of fasting. Blood samples were collected from hepatic vein and centrifuged (3,000 rpm for 10 min at 4° C.). Serum was frozen at −70° C. for the biochemical analysis. The epididymal and abdominal fat pad were immediately weighed, measured size of adipocyte using microscope.

rats fed high fat diet [3] = assay: Experiment 4: serum leptin, insulin and glucose; settings: Exp.4 HFD rats; AE-B 125, AE-C 100, AE-1 10, ABP 1.5 mg/kg once a day 6 weeks
Description: as §1, §3
(§4) Serum leptin and insulin was measured by RIA using Linco leptin assay kit (Linco research Immunoassay, St. Louis, Mo.) and insulin standards (Linco research Immunoassay, St. Louis, Mo.) respectively (FIG. 5).

rats fed high fat diet [4] = assay: Experiment 4: body weight, food intake and food efficiency ratio of rats fed high fat diet; settings: Exp.4 HFD rats; orally once a day 6 weeks; AE-B 125, AE-C 100, AE-1 10, ABP 1.5 mg/kg
Description: as §1
HFD group: High fat diet+0.5% carboxymethycelluose
HFD+AE-B group: High fat diet+AE-B 125 mg/kg
HFD+AE-C group: High fat diet+AE-C 100 mg/kg
HFD+AE-1 group: High fat diet+AE-110 mg/kg
HFD+ABP group: High fat diet+ABP 1.5 mg/kg
(§5) The experimental diets contain either a normal fat (11.7% of calories as fat, AIN-76A diet # 100000, Dyets Inc., Bethlehem, Pa., USA) or a high fat (40% of calories as fat, AIN-76A high fat diet # 100496, Dyets Inc., Bethlehem, Pa., USA) (Table 1). During the test period, food intake and body weight were measured twice a week. Food efficiency ratio was calculated by dividing the increase in body weight during the test period by the food intake during the period.

rats fed high fat diet [5] = assay: Experiment 5: levels of lipid in serum; settings: Exp.5 HFD rats
Protocol: Serum triglyceride (TG), total cholesterol (TC), and HDL-cholesterol (HDL-C) levels were determined using the calorimetric method with commercial kits (Asan Diagnostics, Seoul, Korea). There was no significant difference in serum TG or HDL-C levels, although EASA-treated groups tended to be lower than the HFD-C group (FIG. 4).
as §1, with “n=8)” for “n=10)”, “n=88)” for “n=50)”, “11 groups (n=8).” for “five groups.”
In levels of TG, the HFD groups had similar values to the ND group. EASA treated groups reduced the levels of TG versus the HFD group. […] EASA treated groups reduced the levels of TC versus the HFD and ND group.

rats fed high fat diet [6] = assay: Experiment 5: levels of lipid in liver; settings: Exp.5 HFD rats
Protocol: as §2
as §1, with “n=8)” for “n=10)”, “n=88)” for “n=50)”, “11 groups (n=8).” for “five groups.”

rats fed high fat diet [7] = assay: Experiment 5: serum levels of leptin and insulin; settings: Exp.5 HFD rats
Protocol: as §4
as §1, with “n=8)” for “n=10)”, “n=88)” for “n=50)”, “11 groups (n=8).” for “five groups.”
Serum leptin and insulin level was measured in the same manner as in Test Example 4. Leptin is a hormone secreted from the adipocyte, in proportion to body fat mass. Leptin and insulin are deeply related with energy homeostasis. Increased leptin induces hyperinsulinemia, which in turn directly stimulates the leptin mRNA in the adipocyte.

rats fed high fat diet [8] = assay: Experiment 5: food intake, change of body weights and food efficiency ratio; settings: Exp.5 HFD rats
Protocol: as §5
as §1, with “n=8)” for “n=10)”, “n=88)” for “n=50)”, “11 groups (n=8).” for “five groups.”, “weeks. […]” for “weeks.”
AE-1 20 group: High fat diet+AE-1 (Germacrone) 20 mg/kg
AE-1 10 group: High fat diet+AE-1(Germacrone) 10 mg/kg
AE-1 5 group: High fat diet+AE-1 (Germacrone) 5 mg/kg […]
Experimental diet is same table 1 of experiment 4. Food intake, change of body weights and food efficiency ratio were shown Table 6.

rats fed high fat diet [9] = assay: Experiment 5: adipocyte (fat) weight; settings: Exp.5 HFD rats
Protocol: as §3
as §1, with “n=8)” for “n=10)”, “n=88)” for “n=50)”, “11 groups (n=8).” for “five groups.”
Adipocyte weight were determined method of experiment 5. EASA treated groups reduced white adipocyte versus the HFD group, in a dose-dependent manner.

[10] = AE-1 5 mg/kg orally once a day 6 weeks
[11] = AE-1 10 mg/kg orally once a day 6 weeks
[12] = AE-1 20 mg/kg orally once a day 6 weeks

## CC[C@H](/C=C/[C@@H](C)[C@H]1CC[C@H]2C3=CC[C@H]4C[C@@H](O[C@@H]5O[C@H](CO)[C@@H](O)[C@H](O)[C@H]5O)CC[C@]4(C)[C@H]3CC[C@]12C)C(C)C [ABP, α-Spinasterol 3-O-β-D-glucopyranoide]
Rats fed high fat diet [1]
  FFA (hepatic): 1.018 ± 0.25 meq/l
  TC (hepatic): 17.59 ± 2.79^b mg/g liver
  TG (hepatic): 2.65 ± 0.48^b mg/g liver
Rats fed high fat diet [2]
  Abdominal fat pad: 14.98 ± 3.19^b g
  Epididymal fat pad: 11.55 ± 1.96^ab g
Rats fed high fat diet [3]
  Insulin (serum): 1.21 ± 0.60^bc ng/ml
  Leptin (serum): 3.98 ± 0.95^b ng/ml
Rats fed high fat diet [4]
  12 wk B.W: 509.20 ± 39.54^ab g
  FER (food efficiency ratio): 0.139 ± 0.018^b
  Food intake: 26.00 ± 3.64 g/day

## CC(C)=C1C/C=C(\C)CC/C=C(\C)CC1=O [AE-1, Germacron]
Rats fed high fat diet [1]
  FFA (hepatic): 0.869 ± 0.25 meq/l
  TC (hepatic): 13.74 ± 0.92^c mg/g liver
  TG (hepatic): 2.20 ± 0.52^b mg/g liver
Rats fed high fat diet [2]
  Abdominal fat pad: 14.18 ± 4.67^b g
  Epididymal fat pad: 10.21 ± 2.69^b g
Rats fed high fat diet [5]; [10]
  HDL-cholesterol (serum): 48.39 ± 9.65 mg/dL
  Total cholesterol (serum): 51.93 ± 10.29^c mg/dl
  Triglyceride (serum): 91.51 ± 20.50^ab mg/dl
Rats fed high fat diet [5]; [11]
  HDL-cholesterol (serum): 42.41 ± 8.41 mg/dL
  Total cholesterol (serum): 62.56 ± 8.33^c mg/dl
  Triglyceride (serum): 86.94 ± 21.93^ab mg/dl
Rats fed high fat diet [5]; [12]
  HDL-cholesterol (serum): 55.80 ± 19.57 mg/dL
  Total cholesterol (serum): 51.91 ± 14.32^c mg/dl
  Triglyceride (serum): 91.12 ± 24.03^ab mg/dl
Rats fed high fat diet [3]
  Glucose (serum): 206.60 ± 42.07^ab mg/dl
  Insulin (serum): 1.00 ± 0.27^bc ng/ml
  Leptin (serum): 3.88 ± 1.01^b ng/ml
Rats fed high fat diet [6]; [10]
  FFA (liver): 0.868 ± 0.28 meq/l
  TC (liver): 12.81 ± 1.20^bcd mg/g liver
  TG (liver): 1.95 ± 0.46^b mg/g liver
Rats fed high fat diet [6]; [11]
  FFA (liver): 0.831 ± 0.30 meq/l
  TC (liver): 12.84 ± 1.71^bcd mg/g liver
  TG (liver): 1.81 ± 1.32^b mg/g liver
Rats fed high fat diet [6]; [12]
  FFA (liver): 0.775 ± 0.25 meq/l
  TC (liver): 12.14 ± 1.76^cd mg/g liver
  TG (liver): 1.88 ± 0.55^b mg/g liver
Rats fed high fat diet [7]; [10]
  Insulin (serum): 1.35 ± 0.28^bc ng/ml
  Leptin (serum): 7.63 ± 1.69^b ng/ml
Rats fed high fat diet [7]; [11]
  Insulin (serum): 1.06 ± 0.40^bc ng/ml
  Leptin (serum): 6.55 ± 6.28^bc ng/ml
Rats fed high fat diet [7]; [12]
  Insulin (serum): 0.98 ± 0.21^b ng/ml
  Leptin (serum): 6.70 ± 2.58^b ng/ml
Rats fed high fat diet [8]; [10]
  12 wk B.W: 501.71 ± 46.64^b g
  FER (food efficiency ratio): 0.196 ± 0.029^b
  Food intake: 17.89 ± 2.97 g/day
Rats fed high fat diet [8]; [11]
  12 wk B.W: 494.75 ± 45.52^b g
  FER (food efficiency ratio): 0.189 ± 0.026^b
  Food intake: 18.24 ± 2.93 g/day
Rats fed high fat diet [8]; [12]
  12 wk B.W: 490.75 ± 18.27^b g
  FER (food efficiency ratio): 0.194 ± 0.010^b
  Food intake: 17.48 ± 2.83 g/day
Rats fed high fat diet [9]; [10]
  Abdominal fat: 14.50 ± 4.43^ab g
  Epididymal fat: 11.15 ± 2.39^ab g
  Total fat: 31.09 ± 8.02^b g
  Visceral fat: 5.45 ± 2.13^b g
Rats fed high fat diet [9]; [11]
  Abdominal fat: 14.60 ± 2.20^ab g
  Epididymal fat: 9.97 ± 2.85^b g
  Total fat: 29.55 ± 5.25^b g
  Visceral fat: 4.98 ± 1.53^b g
Rats fed high fat diet [9]; [12]
  Abdominal fat: 13.76 ± 3.11^ab g
  Epididymal fat: 11.05 ± 1.44^b g
  Total fat: 29.49 ± 5.26^b g
  Visceral fat: 4.68 ± 1.78^b g
Rats fed high fat diet [4]
  12 wk B.W: 504.40 ± 28.37^b g
  FER (food efficiency ratio): 0.137 ± 0.013^b
  Food intake: 25.82 ± 2.91 g/day

## CC(C)CC(N(C)C)C1(c2ccc(Cl)cc2)CCC1 (stereo not drawn) [Sibutramine, reference compound]
Rats fed high fat diet [5]; Sibutramine 7.5 mg/kg, 6 weeks
  HDL-cholesterol (serum): 46.62 ± 12.21 mg/dL
  Total cholesterol (serum): 59.79 ± 19.99^c mg/dl
  Triglyceride (serum): 82.62 ± 26.39^ab mg/dl
Rats fed high fat diet [6]; Sibutramine 7.5 mg/kg, 6 weeks
  FFA (liver): 0.871 ± 0.68 meq/l
  TC (liver): 13.52 ± 2.15^bc mg/g liver
  TG (liver): 1.84 ± 0.21^b mg/g liver
Rats fed high fat diet [7]; Sibutramine 7.5 mg/kg, 6 weeks
  Insulin (serum): 1.02 ± 0.33^bc ng/ml
  Leptin (serum): 6.27 ± 1.89^bc ng/ml
Rats fed high fat diet [8]; Sibutramine 7.5 mg/kg, 6 weeks
  12 wk B.W: 462.00 ± 44.93^bc g
  FER (food efficiency ratio): 0.183 ± 0.028^b
  Food intake: 16.70 ± 2.68 g/day
Rats fed high fat diet [9]; Sibutramine 7.5 mg/kg, 6 weeks
  Abdominal fat: 11.44 ± 3.16^b g
  Epididymal fat: 8.75 ± 2.57^bc g
  Total fat: 25.30 ± 5.77^b g
  Visceral fat: 5.11 ± 0.89^b g
